# Like-named read-outs stand apart in the source and are kept apart here.
# Assays:
# [1] = amide bond, 13-membered ring
# [2] = target: T1, CFTR (F508del/MF-HBE cells) (Homo sapiens, UniProt P13569, DEL508-508); assay: Ussing chamber assay of CFTR-mediated short-circuit currents, Assay D (single concentration of 1 μM); assay type: cell-based; details: with 44 nM potentiator and 18 μM Tezacaftor, 20% human serum; for D activity at 1 μM (%): 18-24 hours
# T1 construct: human bronchial epithelial (HBE) cells derived from CF subjects heterozygous for F508del and a minimal function CFTR mutation (F508del/MF-HBE); endogenous in cells; host or cells: Primary human bronchial epithelial cells from CF subjects (F508del/MF genotype), differentiated at an air-liquid interface
# T1 sequence (P13569 with tags, fused parts or gaps DEL508-508): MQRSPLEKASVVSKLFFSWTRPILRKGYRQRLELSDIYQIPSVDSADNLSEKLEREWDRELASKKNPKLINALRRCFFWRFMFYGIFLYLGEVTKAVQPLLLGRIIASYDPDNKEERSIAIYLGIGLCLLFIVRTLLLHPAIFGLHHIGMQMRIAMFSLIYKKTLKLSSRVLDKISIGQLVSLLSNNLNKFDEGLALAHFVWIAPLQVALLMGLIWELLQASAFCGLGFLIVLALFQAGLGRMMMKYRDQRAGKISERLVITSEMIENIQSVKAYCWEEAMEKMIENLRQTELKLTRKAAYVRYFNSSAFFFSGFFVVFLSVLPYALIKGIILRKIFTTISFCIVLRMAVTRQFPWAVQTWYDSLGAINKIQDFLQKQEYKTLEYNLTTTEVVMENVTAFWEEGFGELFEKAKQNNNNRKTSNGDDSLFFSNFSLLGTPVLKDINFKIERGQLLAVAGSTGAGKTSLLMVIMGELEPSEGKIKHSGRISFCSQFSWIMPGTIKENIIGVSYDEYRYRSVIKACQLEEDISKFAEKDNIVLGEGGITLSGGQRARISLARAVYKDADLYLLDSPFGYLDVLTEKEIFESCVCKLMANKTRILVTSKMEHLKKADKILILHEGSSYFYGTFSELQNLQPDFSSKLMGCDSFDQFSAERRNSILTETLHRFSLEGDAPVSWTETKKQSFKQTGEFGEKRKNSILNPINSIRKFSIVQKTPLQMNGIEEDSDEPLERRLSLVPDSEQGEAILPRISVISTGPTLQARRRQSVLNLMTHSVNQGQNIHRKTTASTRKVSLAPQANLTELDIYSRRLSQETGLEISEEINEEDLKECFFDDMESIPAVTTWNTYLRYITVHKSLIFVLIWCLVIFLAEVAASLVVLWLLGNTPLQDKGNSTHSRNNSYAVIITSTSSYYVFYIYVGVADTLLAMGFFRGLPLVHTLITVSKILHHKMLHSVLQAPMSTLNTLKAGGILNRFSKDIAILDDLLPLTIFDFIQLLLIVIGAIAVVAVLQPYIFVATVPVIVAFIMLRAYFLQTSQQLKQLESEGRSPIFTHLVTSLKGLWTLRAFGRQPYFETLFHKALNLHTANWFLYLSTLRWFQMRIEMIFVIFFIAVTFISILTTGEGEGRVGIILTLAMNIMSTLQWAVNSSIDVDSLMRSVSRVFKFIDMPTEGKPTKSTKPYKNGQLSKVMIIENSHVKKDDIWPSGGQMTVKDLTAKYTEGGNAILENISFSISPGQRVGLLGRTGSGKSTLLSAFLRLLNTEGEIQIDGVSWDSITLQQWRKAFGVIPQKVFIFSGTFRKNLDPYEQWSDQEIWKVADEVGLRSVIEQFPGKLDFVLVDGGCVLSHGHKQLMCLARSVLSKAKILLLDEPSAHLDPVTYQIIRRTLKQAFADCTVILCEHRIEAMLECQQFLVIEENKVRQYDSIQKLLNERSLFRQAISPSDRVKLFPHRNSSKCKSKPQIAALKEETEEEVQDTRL
# In short: (§1)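 F508del/MF-HBE cells grown at air-liquid interface were incubated 18-24 h at 37 °C in 20% human serum with correctors plus 18 μM tezacaftor and a fixed partner compound (33 nM for concentration series, 44 nM at 1 μM). ISC was read at 0 mV after 20 μM forskolin, minus the post-inhibitor current.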
# [3] = target: T1, CFTR (F508del/MF-HBE cells); assay: Ussing chamber assay of CFTR-mediated short-circuit currents, Assay C (0.026 μM to 25 μM, 6 concentrations); assay type: cell-based; details: with 33 nM potentiator and 18 μM Tezacaftor, 20% human serum; for Emax: read-out: C Max activity (%)
# In short: as §1
smiles,measurement,setting,value
"Cc1cccc(COC(C)C)c1-c1nc2nc(c1C)OC[C@@H](CC(C)(C)C)N(Cc1cnc3oc(C(C)(C)C)cc3n1)C(=O)c1cccc(c1)S(=O)(=O)N2 (single isomer, unassigned) [IV-40]","ring closure, yield after HPLC","[1]; from Cc1cccc(COC(C)C)c1-c1nc(NS(=O)(=O)c2cccc(C(=O)O)c2)nc(OC[C@@H](CC(C)(C)C)NCc2cnc3oc(C(C)(C)C)cc3n2)c1C, CDMT/NMM, DMF, 15.1 mM, 25.0 °C, 60.0 h",23%
same,D act. at 1 μM (%),[2],+++ (+++ is >60%)
same,EC50,[3],< 1000 nM
same,Emax,[3],> 60%
"Cc1cccc(C)c1-c1cc2nc(n1)NS(=O)(=O)c1cccc(c1)C(=O)N(Cc1cnc3cc(C(C)(C)C)n(C)c3n1)[C@H](CC1(C)CC1)CO2 [Compound I-187, (11R)-12-[(6-tert-Butyl-5-methyl-pyrrolo[2,3-b]pyrazin-3-yl)methyl]-6-(2,6-dimethylphenyl)-11-[(1-methylcyclopropyl)methyl]-2,2-dioxo-9-oxa-2λ^6-thia-3,5,12,19-tetrazatricyclo[12.3.1.14,8]nonadeca-1(18),4(19),5,7,14,16-hexaen-13-one]","ring closure, yield after HPLC","[1]; from Cc1cccc(C)c1-c1cc(OC[C@@H](CC2(C)CC2)NCc2cnc3cc(C(C)(C)C)n(C)c3n2)nc(NS(=O)(=O)c2cccc(C(=O)O)c2)n1, CDMT/NMM, DMF, 22.5 mM, 4.0 h",41%
same,D activity at 1 μM (%),[2],+++ (+++ is >60%)
same,Emax,[3]; 18-24 hours,> 60%
same,EC50,[3],< 1000 nM
"Cc1cccc(C)c1-c1cc2nc(n1)NS(=O)(=O)c1cccc(c1)C(=O)N(Cc1cnc3oc(C4CC4)cc3n1)[C@H](Cc1ccccc1)CO2 [Compound I-191, (11R)-11-Benzyl-12-[(6-cyclopropylfuro[2,3-b]pyrazin-2-yl)methyl]-6-(2,6-dimethylphenyl)-2,2-dioxo-9-oxa-2λ^6-thia-3,5,12,19-tetrazatricyclo[12.3.1.14,8]nonadeca-1(18),4(19),5,7,14,16-hexaen-13-one]","ring closure, yield after HPLC","[1]; from Cc1cccc(C)c1-c1cc(OC[C@@H](Cc2ccccc2)NCc2cnc3oc(C4CC4)cc3n2)nc(NS(=O)(=O)c2cccc(C(=O)O)c2)n1, CDMT/NMM, DMSO, 2.75 h",60%
same,D activity at 1 μM (%),[2],+++ (+++ is >60%)
"Cc1cccc(C)c1-c1cc2nc(n1)NS(=O)(=O)c1cccc(c1)C(=O)N(Cc1cnc3oc(C(C)C)c(NC(=O)OC(C)(C)C)c3n1)[C@H](CC1(C)CC1)CO2 [Compound I-210, tert-Butyl N-[2-[[(11R)-6-(2,6-dimethylphenyl)-11-[(1-methylcyclopropyl)methyl]-2,2,13-trioxo-9-oxa-2λ^6-thia-3,5,12,19-tetrazatricyclo[12.3.1.14,8]nonadeca-1(18),4(19),5,7,14,16-hexaen-12-yl]methyl]-6-isopropyl-furo[2,3-b]pyrazin-7-yl]carbamate]","ring closure, yield after HPLC","[1]; from Cc1cccc(C)c1-c1cc(OC[C@@H](CC2(C)CC2)NCc2cnc3oc(C(C)C)c(NC(=O)OC(C)(C)C)c3n2)nc(NS(=O)(=O)c2cccc(C(=O)O)c2)n1, CDMT/NMM, DMF, 13.4 mM, 5.5 h",55%
same,D activity at 1 μM (%),[2],+++ (+++ is >60%)
"Cc1cccc(C)c1-c1cc2nc(n1)NS(=O)(=O)c1cccc(c1)C(=O)N(Cc1cnc3oc(C(C)(C)C)cc3n1)[C@H](C[C@H]1CCCCO1)CO2 [Compound I-220, (11R)-12-[(6-tert-Butylfuro[2,3-b]pyrazin-2-yl)methyl]-6-(2,6-dimethylphenyl)-2,2-dioxo-11-[[(2R)-tetrahydropyran-2-yl]methyl]-9-oxa-2λ^6-thia-3,5,12,19-tetrazatricyclo[12.3.1.14,8]nonadeca-1(18),4(19),5,7,14,16-hexaen-13-one]","ring closure, yield after HPLC","[1]; from Cc1cccc(C)c1-c1cc(OC[C@@H](C[C@H]2CCCCO2)NCc2cnc3oc(C(C)(C)C)cc3n2)nc(NS(=O)(=O)c2cccc(C(=O)O)c2)n1, CDMT/DIEA, DMF, 11.6 mM, 48.0 h",70%
same,D activity at 1 μM (%),[2],+++ (+++ is >60%)
"Cc1cccc(C)c1-c1cc2nc(n1)NS(=O)(=O)c1cccc(c1)C(=O)N(Cc1ccc3oc(C4(C)CC4)cc3n1)[C@H](CC13CC(C1)C3)CO2 [Compound I-225, (11R)-11-(1-Bicyclo[1.1.1]pentanylmethyl)-6-(2,6-dimethylphenyl)-12-[[2-(1-methylcyclopropyl)furo[3,2-b]pyridin-5-yl]methyl]-2,2-dioxo-9-oxa-2λ^6-thia-3,5,12,19-tetrazatricyclo[12.3.1.14,8]nonadeca-1(18),4(19),5,7,14,16-hexaen-13-one]","ring closure, yield after HPLC","[1]; from Cc1cccc(C)c1-c1cc(OC[C@@H](CC23CC(C2)C3)NCc2ccc3oc(C4(C)CC4)cc3n2)nc(NS(=O)(=O)c2cccc(C(=O)O)c2)n1, CDMT/NMM, DMF",61%
same,D activity at 1 μM (%),[2],+++ (+++ is >60%)
"Cc1cccc(C)c1-c1cc2nc(n1)NS(=O)(=O)c1cccc(c1)C(=O)N(Cc1cnc3cc(C4(C)CC4)n(C)c3n1)[C@H](CC13CC(C1)C3)CO2 [Compound I-227, (11R)-11-(1-Bicyclo[1.1.1]pentanylmethyl)-6-(2,6-dimethylphenyl)-12-[[5-methyl-6-(1-methylcyclopropyl)pyrrolo[2,3-b]pyrazin-3-yl]methyl]-2,2-dioxo-9-oxa-2λ^6-thia-3,5,12,19-tetrazatricyclo[12.3.1.14,8]nonadeca-1(18),4(19),5,7,14,16-hexaen-13-one]","ring closure, yield after HPLC","[1]; from Cc1cccc(C)c1-c1cc(OC[C@@H](CC23CC(C2)C3)NCc2cnc3cc(C4(C)CC4)n(C)c3n2)nc(NS(=O)(=O)c2cccc(C(=O)O)c2)n1, CDMT/NMM, DMF, 25.0 °C",66%
same,D activity at 1 μM (%),[2],+++ (+++ is >60%)
same,Emax,[3]; 18-24 hours,> 60%
same,EC50,[3],< 1000 nM
"Cc1cccc(C)c1-c1cc2nc(n1)NS(=O)(=O)c1cccc(c1)C(=O)N(Cc1nc3cc(C4(C)CC4)oc3cc1F)[C@H](CC1(C)CC1)CO2 [Compound I-234, (11R)-6-(2,6-Dimethylphenyl)-12-[[6-fluoro-2-(1-methylcyclopropyl)furo[3,2-b]pyridin-5-yl]methyl]-11-[(1-methylcyclopropyl)methyl]-2,2-dioxo-9-oxa-2λ^6-thia-3,5,12,19-tetrazatricyclo[12.3.1.14,8]nonadeca-1(18),4(19),5,7,14,16-hexaen-13-one]","ring closure, yield after HPLC","[1]; from Cc1cccc(C)c1-c1cc(OC[C@@H](CC2(C)CC2)NCc2nc3cc(C4(C)CC4)oc3cc2F)nc(NS(=O)(=O)c2cccc(C(=O)O)c2)n1, CDMT/NMM, DMF, 25.0 °C",57%
same,D activity at 1 μM (%),[2],+++ (+++ is >60%)
"Cc1cccc(C)c1-c1cc2nc(n1)NS(=O)(=O)c1cccc(c1)C(=O)N(Cc1cnc3c(n1)CN(C(C)C)C3=O)[C@H](CC13CC(C1)C3)CO2 [III-16, (11R)-11-(1-bicyclo[1.1.1]pentanylmethyl)-6-(2,6-dimethylphenyl)-12-[(6-isopropyl-7-oxo-5H-pyrrolo[3,4-b]pyrazin-3-yl)methyl]-2,2-dioxo-9-oxa-2λ^6-thia-3,5,12,19-tetrazatricyclo[12.3.1.14,8]nonadeca-1(18),4(19),5,7,14,16-hexaen-13-one]","ring closure, yield after HPLC","[1]; from Cc1cccc(C)c1-c1cc(OC[C@@H](CC23CC(C2)C3)NCc2cnc3c(n2)CN(C(C)C)C3=O)nc(NS(=O)(=O)c2cccc(C(=O)O)c2)n1, CDMT/NMM, DMF, 13.0 mM, 16.5 h",39%
same,D activity at 1 μM (%),[2],+++ (+++ is >60%)
"Cc1cccc(C)c1-c1cc2nc(n1)NS(=O)(=O)c1cccc(c1)C(=O)N(Cc1cc3ccn(C(C)C)c3cn1)[C@H](CC1(C)CC1)CO2 [III-25, (11R)-6-(2,6-Dimethylphenyl)-12-[(I-isopropylpyrrolo[2,3-c]pyridin-5-yl)methyl]-11-[(I-methylcyclopropyl)methyl]-2,2-dioxo-9-oxa-2λ^6-thia-3,5,12,19-tetrazatricyclo[12.3.1.14,8]nonadeca-1(18),4(19),5,7,14,16-hexaen-13-one]","ring closure, yield after HPLC","[1]; from Cc1cccc(C)c1-c1cc(OC[C@@H](CC2(C)CC2)NCc2cc3ccn(C(C)C)c3cn2)nc(NS(=O)(=O)c2cccc(C(=O)O)c2)n1, CDMT/NMM, DMF, 9.73 mM, 16.33 h",50%
same,D activity at 1 μM (%),[2],+++ (+++ is >60%)
"CCc1c2nc(nc1-c1c(C)cccc1C)NS(=O)(=O)c1cccc(c1)C(=O)N(Cc1cnc3cc(C(C)(C)C)n(C)c3n1)[C@H](COC(C)C)CO2 [IV-4, (11R)-12-[(6-tert-butyl-5-methyl-pyrrolo[2,3-b]pyrazin-3-yl)methyl]-6-(2,6-dimethylphenyl)-7-ethyl-11-(isopropoxymethyl)-2,2-dioxo-9-oxa-2λ^6-thia-3,5,12,19-tetrazatricyclo[12.3.1.14,8]nonadeca-1(17),4(19),5,7,14(18),15-hexaen-13-one]","ring closure, yield after HPLC","[1]; from CCc1c(OC[C@@H](COC(C)C)NCc2cnc3cc(C(C)(C)C)n(C)c3n2)nc(NS(=O)(=O)c2cccc(C(=O)O)c2)nc1-c1c(C)cccc1C, CDMT/NMM, DMF, 10.0 mM, 25.0 °C, 3.5 h",20%
same,D act. at 1 μM (%),[2],+++ (+++ is >60%)
same,EC50,[3],< 1000 nM
same,Emax,[3],> 60%

# — patent publication US20250340574A1, “MODULATORS OF CYSTIC FIBROSIS TRANSMEMBRANE CONDUCTANCE REGULATOR” (Vertex Pharmaceuticals Incorporated, priority 2022, published 2025)
